# Test results as given in US20100099564A1, “HERBICIDE COMBINATION COMPRISING DIMETHOXYTRIAZINYL-SUBSTITUTED DIFLUOROMETHANESULFONYLANILIDES” (BAYER CROPSCIENCE AG, priority 2008, published 2010).
# Experiments:
# Assay type in all cases: in vivo
# Viola tricolor (VIOTR) = assay: Post-emergence action, greenhouse pot test, visual scoring: VIOTR; details: 21 DAT; dose (6) 100
# Description: (§1) Seeds or rhizome pieces of mono- and dicotyledonous harmful and useful plants were placed in peat pots (diameter 4 cm) filled with sandy loam and then covered with soil. The pots were kept in a greenhouse under optimum conditions. In addition, harmful plants encountered in paddy rice cultivation were cultivated in pots with a water level 2 cm above the soil surface.
# (§2) About three weeks after the start of the cultivation, the test plants were treated at the 2- to 3-leaf stage. The herbicides, formulated as powder or liquid concentrates, were, either alone or in the combinations according to the invention, sprayed in various dosages on to the green parts of the plants using an application rate of 600 l of water/ha (converted). For further cultivation of the plants, the pots were then again kept under optimum conditions in a greenhouse.
# (§3) The visual scoring of the herbicidal effects was carried out in intervals up to 21 days after the treatment. Scoring was carried out in percent in comparison to the untreated control plants. 0%=no herbicidal activity, 100%=complete herbicidal activity=complete kill.
# (§4) The percentages from the treatments with the herbicides alone (=individual application) and with the combinations according to the invention (=mixtures) were employed to calculate interactions using the method of Colby. When the observed efficacies of the mixtures exceed the formal sum of the values of the tests with individual applications, they also exceed the expected value according to Colby, which is calculated using the formula below (cf. S. R. Colby; in Weeds 15 (1967) pp. 20 to 22):
# (§5) Here: • A, B=activity of components A and B in percent at a dosage of a and b g of ai/ha (=gramm of active substance per hectare), respectively. • E=expected value in % at a dosage of a+b g of ai/ha.
# (§6) The combinations according to the invention of herbicides from group (A) with herbicides from group (B) were tested on a broad spectrum of important harmful plants (weed grasses, broad-leaved weeds/Cyperaceae) and useful plants: Triticum aestivum (TRZAS), Stellaria media (STEME), Lolium multiflorum (LOLMU), Veronica persica (VERPE), Alopecurus myosuroides (ALOMY), Matricaria inodora (MATIN), Brassica napus (BRSNW), Viola tricolor (VIOTR), Avena fatua (AVEFA), Amaranthus retroflexus (AMARE), Zea mays (ZEAMX), Pharbitis purpurea (PHBPU), Setaria viridis (SETVI), Fallopia (ex Polygonum) convolvulus (POLCO), Echinochloa crusgaffi (ECHCG), Abuthilon theophrasti (ABUTH), Cyperus esculentus (CYPES), Oryza sativa (ORYSA).
# (§7) Of particular interest are the results shown in the tables (Tab.) below, where the following key is used: • (1) EPPO code (former Bayer code) for the treated plant (see above) • (2) Time of scoring: DAT (days after treatment) • (3) Component A tested (identifying number) • (4) Component B tested (identifying number) • (5) Dosage component A [g of ai/ha] • (6) Dosage component B [g of ai/ha] • (7) % activity found • (8) E value (calculated according to Colby; see above) • (9) Comments: “SYNERGY” =synergistic interaction (E value<% activity found); “SAFENING”=safener action on useful plant (E value>% activity found)
# [1] = test system: Fallopia (ex Polygonum) convolvulus (POLCO); assay: Post-emergence action, greenhouse pot test, visual scoring: POLCO; details: 21 DAT
# Description: as §1, §2, §3, §4, §5, §6, §7
# Avena fatua (AVEFA) = assay: Post-emergence action, greenhouse pot test, visual scoring: AVEFA
# Description: as §1, §2, §3, §4, §5, §6, §7
# [2] = test system: Amaranthus retroflexus (AMARE); assay: Post-emergence action, greenhouse pot test, visual scoring: AMARE; details: 21 DAT; dose (6) 300
# Description: as §1, §2, §3, §4, §5
# [3] = test system: Matricaria inodora (MATIN); assay: Post-emergence action, greenhouse pot test, visual scoring: MATIN; details: dose (6) 100
# Description: as §1, §2, §3, §4, §5
# Stellaria media (STEME) = assay: Post-emergence action, greenhouse pot test, visual scoring: STEME; details: 10 DAT
# Description: as §1, §2, §3, §4, §5, §6, §7
# [4] = test system: Pharbitis purpurea (PHBPU); assay: Post-emergence action, greenhouse pot test, visual scoring: PHBPU; details: 21 DAT
# Description: as §1, §2, §3, §4, §5, §6, §7
# [5] = test system: Cyperus esculentus (CYPES); assay: Post-emergence action, greenhouse pot test, visual scoring: CYPES; details: for (7) % activity found: rate (6) 18
# Description: as §1, §2, §3, §4, §5
# [6] = test system: Triticum aestivum (TRZAS); assay: Post-emergence action, greenhouse pot test, visual scoring: TRZAS; details: for (7) % activity found: 21 DAT
# Description: as §1, §2, §3, §4, §5, §6, §7
# Veronica persica (VERPE) = assay: Post-emergence action, greenhouse pot test, visual scoring: VERPE
# Description: as §1, §2, §3, §4, §5, §6, §7
# [7] = test system: Abuthilon theophrasti (ABUTH); assay: Post-emergence action, greenhouse pot test, visual scoring: ABUTH; details: 21 DAT
# Description: as §1, §2, §3, §4, §5, §6, §7
# [8] = test system: Alopecurus myosuroides (ALOMY); assay: Post-emergence action, greenhouse pot test, visual scoring: ALOMY; details: for (7) % activity found: 21 DAT
# Description: as §1, §2, §3, §4, §5
# Setaria viridis (SETVI) = assay: Post-emergence action, greenhouse pot test, visual scoring: SETVI; details: 21 DAT
# Description: as §1, §2, §3, §4, §5, §6, §7
# [9] = test system: Lolium multiflorum (LOLMU); assay: Post-emergence action, greenhouse pot test, visual scoring: LOLMU; details: for % activity found: 10 DAT; for (7) % activity found: 21 DAT
# Description: as §1, §2, §3, §4, §5, §6, §7
# [10] = test system: Echinochloa crusgaffi (ECHCG); assay: Post-emergence action, greenhouse pot test, visual scoring: ECHCG; details: 10 DAT
# Description: as §1, §2, §3, §4, §5, §6, §7
compound,measurement,setting,value
"CCCOCCN(C(=O)CCl)c1c(CC)cccc1CC [B4-8, 2-chloro-N-(2,6-diethylphenyl)-N-(2-propoxyethyl)acetamide]",% activity found,Viola tricolor (VIOTR),10%
same,% activity found,[1]; dose (6) 100,0%
same,% activity found,[1]; dose (6) 300,20%
same,% activity found,"Avena fatua (AVEFA); 10 DAT, dose (6) 100",0%
same,% activity found,"Avena fatua (AVEFA); 21 DAT, dose (6) 100",0%
same,% activity found,"Avena fatua (AVEFA); 21 DAT, dose (6) 300",30%
same,% activity found,[2],20%
same,% activity found,[3]; 10 DAT,0%
same,% activity found,[3]; 21 DAT,0%
same,% activity found,Stellaria media (STEME); dose (6) 100,10%
same,% activity found,Stellaria media (STEME); dose (6) 300,10%
same,% activity found,[4]; dose (6) 100,0%
same,% activity found,[4]; dose (6) 300,0%
same,% activity found,"[5]; 21 DAT, dose (6) 100",0%
same,% activity found,"[5]; 21 DAT, dose (6) 300",0%
same,plant injury at 300 g/ha,"[6]; Triticum aestivum, post-emergence, 240 h, 10 DAT, B 300 g of ai/ha, read-out: % activity found",10%
same,% activity found,"Veronica persica (VERPE); 10 DAT, dose (6) 100",0%
same,% activity found,"Veronica persica (VERPE); 10 DAT, dose (6) 300",0%
same,% activity found,"Veronica persica (VERPE); 21 DAT, dose (6) 100",0%
same,% activity found,"Veronica persica (VERPE); 21 DAT, dose (6) 300",0%
same,% activity found,[7]; dose (6) 100,0%
same,% activity found,[7]; dose (6) 300,0%
same,pest or weed control at 100 g/ha,"[8]; Alopecurus myosuroides, post-emergence, 240 h, 10 DAT, B 100 g of ai/ha, read-out: % activity found",10%
"COc1cc(OC)nc(NC(=O)NS(=O)(=O)Nc2ccccc2C(=O)C2CC2)n1 [B7-7, N-[[[2-(cyclopropylcarbonyl)phenyl]amino]sulfonyl]-N′-(4,6-dimethoxy-2-pyrimidinyl)urea]",% activity found,"Avena fatua (AVEFA); 10 DAT, dose (6) 18",0%
same,% activity found,"Avena fatua (AVEFA); 10 DAT, dose (6) 54",30%
same,(7) % activity found,"Avena fatua (AVEFA); 21 DAT, rate (6) 18",0%
same,(7) % activity found,"Avena fatua (AVEFA); 21 DAT, rate (6) 54",10%
same,(7) % activity found,Setaria viridis (SETVI); rate (6) 18,20%
same,(7) % activity found,Setaria viridis (SETVI); rate (6) 54,20%
same,% activity found,[9]; dose (6) 18,0%
same,% activity found,[9]; dose (6) 54,0%
same,(7) % activity found,[9]; rate (6) 18,0%
same,(7) % activity found,[9]; rate (6) 54,0%
same,(7) % activity found,[5]; 10 DAT,0%
same,(7) % activity found,[5]; 21 DAT,40%
same,(7) % activity found,[6]; rate (6) 18,0%
same,(7) % activity found,[6]; rate (6) 54,0%
same,(7) % activity found,[8]; rate (6) 18,30%
same,(7) % activity found,[8]; rate (6) 54,40%
same,(7) % activity found,[10]; rate (6) 18,0%
same,(7) % activity found,[10]; rate (6) 54,0%
